In article PMC5863483, “Low HLA binding of diabetes-associated CD8+ T-cell epitopes is increased by post translational modifications” (BMC Immunology, 2018):
*1 amine or outer side, *2 acyl side, *3 side chain or, on linkers, in order; H or OH if unused. Where a SMILES comes first, the peptide text is derived from it. Where no end group is shown, it is not given here. [ ]: non-standard residue; d: D form. Tyr(3-Cl) = N[C@@H](Cc1ccc(O)c(Cl)c1)C(=O)O; γGlu = O=C(O)[C@H](CCC(=O)[*:2])N[*:1]; βAsp = O=C(O)[C@H](CC(=O)[*:2])N[*:1]; Cya = N[C@@H](CS(=O)(=O)O)C(=O)O; Cit = NC(=O)NCCC[C@H](N)C(=O)O

What follows are compounds tested against HLA-A*02:01 (Homo sapiens, UniProt P04439, D140Y/D185E/D98H/E176V/E277Q/G131W/G231S/I119V/I121R/I166T/I218V/L300P/L318F/N151K/N90K/P208A/P217A/Q86G/Q94H/R138H/R169H/T345S) (assay: HLA-peptide competition binding assay, A*02:01). Conditions: not given.

Compound	IC50
C[C@@H](O)[C@H](NC(=O)[C@H](CCCCN)NC(=O)[C@@H]1CCCN1C(=O)[C@@H](NC(=O)[C@H](Cc1ccc(O)cc1)NC(=O)[C@H](Cc1ccccc1)NC(=O)[C@H](Cc1ccccc1)NC(=O)CNC(=O)[C@@H](N)CCCNC(N)=O)[C@@H](C)O)C(=O)O	27300 nM
VAANIVLTV [reference compound]	320 nM

Same assay, conditions: increase of A*02:01 binding of the modified peptide compared to the WT peptide

Fold increase	Compound
2.02 fold	CC(C)C[C@H](NC(=O)[C@H](C)NC(=O)[C@H](CCC(=O)O)NC(=O)[C@@H](NC(=O)[C@H](CC(C)C)NC(=O)[C@H](Cc1c[nH]cn1)NC(=O)[C@@H](N)CO)C(C)C)C(=O)N[C@@H](Cc1ccc(O)c(Cl)c1)C(=O)N[C@@H](CC(C)C)C(=O)N[C@H](C(=O)O)C(C)C [SHLVEALJLV] (H-SHLVEAL[Tyr(3-Cl)]LV-OH)

Same assay, conditions: post-translationally modified insulin peptide; competition binding assay; a dash indicates IC50 >40,000 nM; read-out: A*02:01 binding (IC50 nM) Modified

Compound	IC50
CC(C)C[C@H](N)C(=O)N[C@H](C(=O)N[C@@H](CS(=O)(=O)O)C(=O)NCC(=O)N[C@@H](CCC(=O)O)C(=O)N[C@@H](CCCNC(=N)N)C(=O)NCC(=O)N[C@@H](Cc1ccc(O)cc1)C(=O)N[C@@H](Cc1ccc(O)cc1)C(=O)O)C(C)C [LVBGERGYY] (H-LV[Cya]GERGYY-OH; N-terminus and C-terminus assumed)	> 40000 nM
FVDEHLCGSH	> 40000 nM
ERGYFYTPKT	> 40000 nM
CC(C)C[C@H](NC(=O)[C@H](Cc1c[nH]cn1)NC(=O)[C@H](CCC(N)=O)NC(=O)[C@@H](N)CC(N)=O)C(=O)N[C@@H](CS(=O)(=O)O)C(=O)NCC(=O)N[C@@H](CO)C(=O)N[C@@H](Cc1c[nH]cn1)C(=O)N[C@@H](CC(C)C)C(=O)N[C@H](C(=O)O)C(C)C [NQHLBGSHLV] (H-NQHL[Cya]GSHLV-OH; N-terminus and C-terminus assumed)	> 40000 nM
LYLVCGERGY	> 40000 nM
C[C@@H](O)[C@H](NC(=O)[C@H](Cc1ccc(O)cc1)NC(=O)[C@H](Cc1ccccc1)NC(=O)[C@H](Cc1ccccc1)NC(=O)CNC(=O)[C@H](CCCNC(N)=O)NC(=O)[C@H](CCC(=O)O)NC(=O)CNC(=O)[C@@H](N)CS)C(=O)O (H-CGE[Cit]GFFYT-OH; N-terminus and C-terminus assumed)	> 40000 nM
DEHLCGSHLV	> 40000 nM
CC(C)C[C@H](NC(=O)[C@H](CC(=O)O)NC(=O)[C@H](CCC(=O)O)NC(=O)[C@H](C)NC(=O)[C@H](CCC(=O)O)NC(=O)[C@@H](N)CCCNC(N)=O)C(=O)N[C@@H](CCC(N)=O)C(=O)N[C@H](C(=O)NCC(=O)O)C(C)C (H-[Cit]EAEDLQVG-OH; N-terminus and C-terminus assumed)	> 40000 nM
CC(C)C[C@H](NC(=O)[C@H](Cc1c[nH]cn1)NC(=O)CC[C@H](NC(=O)C[C@H](N)C(=O)O)C(=O)O)C(=O)N[C@@H](CS)C(=O)NCC(=O)N[C@@H](CO)C(=O)N[C@@H](Cc1c[nH]cn1)C(=O)N[C@@H](CC(C)C)C(=O)N[C@H](C(=O)O)C(C)C [OZHLCGSHLV] ({βAsp-γGlu}-HLCGSHLV-OH; N-terminus and C-terminus assumed)	> 40000 nM
C[C@@H](O)[C@H](NC(=O)[C@H](Cc1ccc(O)cc1)NC(=O)[C@H](Cc1ccc(O)cc1)NC(=O)[C@H](Cc1ccc(O)cc1)NC(=O)CNC(=O)[C@H](CCCNC(=N)N)NC(=O)[C@H](CCC(=O)O)NC(=O)CNC(=O)[C@@H](N)CS(=O)(=O)O)C(=O)O [BGERGYYYT] (H-[Cya]GERGYYYT-OH; N-terminus and C-terminus assumed)	> 40000 nM
CC(C)C[C@H](NC(=O)[C@H](CO)NC(=O)CNC(=O)[C@H](CCC(=O)O)NC(=O)[C@@H](N)CC(C)C)C(=O)N[C@@H](CCC(N)=O)C(=O)N[C@@H](CCCCN)C(=O)N[C@@H](CCCNC(N)=O)C(=O)NCC(=O)O (H-LEGSLQK[Cit]G-OH; N-terminus and C-terminus assumed)	> 40000 nM

Other lines, results leading:

IC50	Compound
> 40000 nM	CC(C)C[C@H](NC(=O)[C@H](Cc1c[nH]cn1)NC(=O)CC[C@H](N)C(=O)O)C(=O)N[C@@H](CS)C(=O)NCC(=O)N[C@@H](CO)C(=O)N[C@@H](Cc1c[nH]cn1)C(=O)N[C@@H](CC(C)C)C(=O)N[C@H](C(=O)N[C@@H](CCC(=O)O)C(=O)O)C(C)C [ZHLCGSHLVE] (γGlu-HLCGSHLVE-OH; N-terminus and C-terminus assumed)
> 40000 nM	CC[C@H](C)[C@H](NC(=O)CNC(=O)[C@H](CCCNC(N)=O)NC(=O)[C@H](CCCCN)NC(=O)[C@H](CCC(N)=O)NC(=O)[C@H](CC(C)C)NC(=O)[C@@H](N)CO)C(=O)N[C@H](C(=O)N[C@@H](CCC(=O)O)C(=O)O)C(C)C [SLQKUGIVE] (H-SLQK[Cit]GIVE-OH; N-terminus and C-terminus assumed)
> 40000 nM	VCGERGYFYT

Same assay, conditions: post-translationally modified insulin-derived peptide; radiolabeled ligand competition, purified MHC, two-day incubation, three or more independent experiments; read-out: A*02:01 binding, Modified

IC50	Compound
69 nM	CSCC[C@H](NC(=O)[C@H](Cc1c[nH]c2ccccc12)NC(=O)[C@H](CC(C)C)NC(=O)[C@H](C)N)C(=O)N[C@@H](CCCNC(N)=O)C(=O)N[C@@H](CC(C)C)C(=O)N[C@@H](CC(C)C)C(=O)N1CCC[C@H]1C(=O)N[C@@H](CC(C)C)C(=O)N[C@@H](CC(C)C)C(=O)O (H-ALWM[Cit]LLPLL-OH)

Same assay, conditions: read-out: A*02:01 binding (IC50 nM) Modified

IC50	Compound
28300 nM	C[C@@H](O)[C@H](NC(=O)[C@H](CCCCN)NC(=O)[C@@H]1CCCN1C(=O)[C@@H](NC(=O)[C@H](Cc1ccc(O)cc1)NC(=O)[C@H](Cc1ccccc1)NC(=O)[C@@H](N)Cc1ccccc1)[C@@H](C)O)C(=O)N[C@@H](CCCNC(N)=O)C(=O)N[C@@H](CCCNC(N)=O)C(=O)N[C@@H](CCC(=O)O)C(=O)O (H-FFYTPKT[Cit][Cit]E-OH)
35500 nM	CC(C)C[C@H](NC(=O)[C@H](Cc1ccc(O)cc1)NC(=O)[C@@H](N)CC(C)C)C(=O)N[C@H](C(=O)N[C@@H](CS(=O)(=O)O)C(=O)NCC(=O)N[C@@H](CCC(=O)O)C(=O)N[C@@H](CCCNC(=N)N)C(=O)NCC(=O)N[C@@H](Cc1ccc(O)cc1)C(=O)O)C(C)C [LYLVBGERGY] (H-LYLV[Cya]GERGY-OH)
38100 nM	C[C@@H](O)[C@H](NC(=O)[C@H](Cc1ccc(O)cc1)NC(=O)[C@H](Cc1ccccc1)NC(=O)[C@H](Cc1ccccc1)NC(=O)CNC(=O)[C@H](CCCNC(N)=O)NC(=O)[C@@H](N)CCC(=O)O)C(=O)N1CCC[C@H]1C(=O)N[C@@H](CCCCN)C(=O)O (H-E[Cit]GFFYTPK-OH)
37900 nM	CC(C)C[C@H](NC(=O)[C@H](Cc1c[nH]cn1)NC(=O)[C@@H](N)CCC(N)=O)C(=O)N[C@@H](CS(=O)(=O)O)C(=O)NCC(=O)N[C@@H](CO)C(=O)N[C@@H](Cc1c[nH]cn1)C(=O)N[C@@H](CC(C)C)C(=O)N[C@H](C(=O)O)C(C)C [QHLBGSHLV] (H-QHL[Cya]GSHLV-OH)

Same assay, conditions: read-out: A*02:01 binding (IC50 nM) WT

IC50	Compound
23300 nM	LVEALYLVCG
12200 nM	C[C@@H](O)[C@H](NC(=O)[C@H](CCCCN)NC(=O)[C@@H]1CCCN1C(=O)[C@@H](NC(=O)[C@H](Cc1ccc(O)cc1)NC(=O)[C@H](Cc1ccccc1)NC(=O)[C@H](Cc1ccccc1)NC(=O)CN)[C@@H](C)O)C(=O)N[C@@H](CCCNC(=N)N)C(=O)O
12000 nM	EALYLVCGE

Same assay, conditions: read-out: IC50 nM, target assay A*02:01

Compound	IC50
LCGSHLVEAL [LCGSHLVEAL, reference compound]	> 40000 nM
SLTAISTTL [reference compound]	242 nM

Next, values leading:

IC50	Compound
9510 nM	YIPSCTVVGM [reference compound]
1370 nM	KLQVFLIVL [reference compound]
4060 nM	HLASEKVYAI [reference compound]
1250 nM	LASEKVYTI [reference compound]
1.8 nM	NLLGRFELIGI [reference compound]
764 nM	NLLGRFELI [reference compound]
3820 nM	HLSYHWLLPL [reference compound]
2310 nM	VMNILLQYVV [reference compound]
9040 nM	IQATVMIIV [reference compound]
460 nM	GVFIQVYEV [reference compound]
709 nM	RMMEYGTTMV [reference compound]
> 40000 nM	SLQKRGIVEQ [reference compound]
6930 nM	LASEKVYAI [reference compound]
684 nM	LNIDLLWSV [reference compound]
287 nM	VLHELFGMDI [reference compound]
124 nM	RLLYPDYQI [reference compound]
35 nM	LLQEYNWEL [reference compound]
> 40000 nM	WGPDPAAA [reference compound]
70 nM	FLQDVMNIL [reference compound]
9230 nM	STVASWLGPV [reference compound]

Same assay, conditions: unmodified (WT) insulin peptide; competition binding assay; a dash indicates IC50 >40,000 nM; read-out: A*02:01 binding (IC50 nM) WT

Compound	IC50
FYTPKTRREA	> 40000 nM
FVNQHLCGS	> 40000 nM
LCGSHLVEAL [LCGSHLVEAL, reference compound]	> 40000 nM
C[C@@H](O)[C@H](NC(=O)[C@H](CCCCN)NC(=O)[C@@H]1CCCN1C(=O)[C@@H](NC(=O)[C@H](Cc1ccc(O)cc1)NC(=O)[C@H](Cc1ccccc1)NC(=O)[C@H](Cc1ccccc1)NC(=O)CN)[C@@H](C)O)C(=O)N[C@@H](CCCNC(=N)N)C(=O)N[C@@H](CCCNC(=N)N)C(=O)O	> 40000 nM

Next, values leading:

IC50	Compound
> 40000 nM	RREAEDLQVG
> 40000 nM	QKRGIVEQC
> 40000 nM	YTPKTRREAE

Same assay, conditions: unmodified (wild type) insulin-derived peptide; radiolabeled ligand competition, purified MHC, two-day incubation, three or more independent experiments; read-out: A*02:01 binding, WT

IC50	Compound
28000 nM	LYLVCGERG
6740 nM	YLVCGERGF
10100 nM	EALYLVCGER
8780 nM	CC(C)C[C@H](NC(=O)[C@H](C)N)C(=O)N[C@@H](Cc1ccc(O)cc1)C(=O)N[C@@H](CC(C)C)C(=O)N[C@H](C(=O)N[C@@H](CS)C(=O)NCC(=O)N[C@@H](CCC(=O)O)C(=O)N[C@@H](CCCNC(=N)N)C(=O)NCC(=O)O)C(C)C
